Experimental findings from ChEMBL document CHEMBL1136547, “2,3-Diarylbenzopyran derivatives as a novel class of selective cyclooxygenase-2 inhibitors” (Bioorg Med Chem Lett, 2003) are described below.

The structures appear in SMILES notation. pIC50: −log10 of the molar value.

In data set [1] the target is T1, Prostaglandin G/H synthase 1 (Mus musculus) (UniProt P22437).
T1 sequence (whole entry): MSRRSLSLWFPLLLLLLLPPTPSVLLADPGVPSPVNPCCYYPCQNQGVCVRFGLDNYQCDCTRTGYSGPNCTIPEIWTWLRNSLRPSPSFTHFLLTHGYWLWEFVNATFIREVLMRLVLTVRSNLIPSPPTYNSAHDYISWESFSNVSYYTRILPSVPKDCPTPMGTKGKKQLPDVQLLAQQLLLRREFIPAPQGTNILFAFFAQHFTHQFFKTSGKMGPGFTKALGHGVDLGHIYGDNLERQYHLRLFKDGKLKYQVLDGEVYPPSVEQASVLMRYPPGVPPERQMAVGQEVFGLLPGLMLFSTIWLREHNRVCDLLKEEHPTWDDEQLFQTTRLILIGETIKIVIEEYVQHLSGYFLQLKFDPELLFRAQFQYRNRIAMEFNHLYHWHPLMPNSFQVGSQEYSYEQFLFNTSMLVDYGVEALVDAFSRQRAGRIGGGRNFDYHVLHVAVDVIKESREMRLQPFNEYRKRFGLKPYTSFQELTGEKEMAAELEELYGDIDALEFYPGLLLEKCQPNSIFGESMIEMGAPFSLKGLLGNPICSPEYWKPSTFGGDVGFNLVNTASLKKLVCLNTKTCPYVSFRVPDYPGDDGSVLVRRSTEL
Kind of data set: In vitro percentage inhibition against prostaglandin G/H synthase 1 using freshly harvested mouse peritoneal macrophages at 10 ug/mL concentration.

In data set [2] the target is T2, Prostaglandin G/H synthase 2 (Mus musculus) (UniProt Q05769).
T2 sequence (whole entry): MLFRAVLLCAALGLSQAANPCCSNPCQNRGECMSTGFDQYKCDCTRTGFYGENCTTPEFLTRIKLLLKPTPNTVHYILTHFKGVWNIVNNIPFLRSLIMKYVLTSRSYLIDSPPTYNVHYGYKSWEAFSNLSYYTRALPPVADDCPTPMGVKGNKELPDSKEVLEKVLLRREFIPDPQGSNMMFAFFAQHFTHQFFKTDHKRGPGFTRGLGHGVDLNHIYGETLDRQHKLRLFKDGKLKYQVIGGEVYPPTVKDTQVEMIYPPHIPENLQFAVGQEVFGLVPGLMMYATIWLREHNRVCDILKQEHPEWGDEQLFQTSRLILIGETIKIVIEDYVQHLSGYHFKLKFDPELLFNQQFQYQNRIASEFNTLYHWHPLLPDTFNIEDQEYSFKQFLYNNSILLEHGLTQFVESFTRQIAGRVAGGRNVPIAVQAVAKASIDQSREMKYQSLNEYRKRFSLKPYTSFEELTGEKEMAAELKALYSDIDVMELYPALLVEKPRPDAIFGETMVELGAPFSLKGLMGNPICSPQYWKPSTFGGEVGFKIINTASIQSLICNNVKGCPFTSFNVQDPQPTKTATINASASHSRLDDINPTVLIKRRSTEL
Kind of data set: In vitro percentage inhibition against Prostaglandin G/H synthase 2 using freshly harvested mouse peritoneal macrophages at 10 ug/mL concentration.

Data set [3] has as its target T3, Prostaglandin G/H synthase 2 (Mus musculus, UniProt Q05769).
T3 sequence (Q05769 whole entry): T2 sequence (whole entry)
As to the kind of experiment: In vitro inhibitory concentration against prostaglandin G/H synthase 2 using freshly harvested mouse peritoneal macrophages.

Data set [4] has as its target T2, Prostaglandin G/H synthase 2 (Mus musculus). As to the kind of experiment: In vitro percentage inhibition against Prostaglandin G/H synthase 2 using freshly harvested mouse peritoneal macrophages at 3 ug/mL concentration.
Data set [5] can be described thus: Cmax in rat at 10 mg/kg. It counts as ADME, organism-based. More on the design: dose 10 mg/kg. Conditions: in vivo.
Data set [6] is described as follows: Half-life period in rat at 10 mg/kg. It counts as ADME, organism-based. Further details: dose 10 mg/kg. The note with it: in vivo.
Data set [7] is described as follows: Tmax in rat at 10 mg/kg. It counts as ADME, organism-based. More on the design: dose 10 mg/kg. The note with it: in vivo.
Data set [8] has as its system Rattus norvegicus. Kind of data set: Anti-inflammatory activity in Dawley rats by carrageenan-induced rat paw edema at a dose of 10 mg/kg by oral administration. The class given is functional. On the technique in general: Carrageenan injected into the paw causes an acute inflammation.
The test system of data set [9] is Rattus norvegicus. Kind of data set: Anti-inflammatory activity in Dawley rats by carrageenan-induced rat paw edema at a dose of 3 mg/kg by oral administration. It counts as functional.
Data set [10] has as its system Rattus norvegicus. Kind of data set: Anti-inflammatory activity in Dawley rats by carrageenan-induced rat paw edema at a dose of 30 mg/kg by oral administration. The class given is functional.
In data set [11] the target is T1, Prostaglandin G/H synthase 1 (Mus musculus). As to the kind of experiment: In vitro percentage inhibition against using freshly harvested mouse peritoneal macrophages Prostaglandin G/H synthase 1 at 10 ug/mL concentration.
In data set [12] the test system is Rattus norvegicus. As to the kind of experiment: Anti-inflammatory activity in Dawley rats by carrageenan-induced rat paw edema at a dose of 3 mg/kg. It counts as functional.
The test system of data set [13] is Rattus norvegicus. Kind of data set: Anti-inflammatory activity in Dawley rats by carrageenan-induced rat paw edema at a dose of 30 mg/kg. It counts as functional.

`CS(=O)(=O)c1ccc(-c2oc3ccccc3c(=O)c2-c2ccccn2)cc1`: the figures for the inhibition in [1] and in data set [2] were 17% and 44%, respectively.
Consider `NS(=O)(=O)c1ccc(-c2oc3ccccc3c(=O)c2-c2ccccc2F)cc1`, for which, in [1], the inhibition was 60%. The compound also had a negative-log IC50 (pIC50) in [3] of 6.75.
The like results for `COc1ccc(-c2c(-c3ccc(S(N)(=O)=O)cc3)oc3ccccc3c2=O)cc1` were, in that order, 84% and 6.41.
The like results for `CS(=O)(=O)c1ccc(-c2oc3ccccc3c(=O)c2-c2ccc(Cl)cc2Cl)cc1` were, in that order, under 5% and 6.44.
The like results for `CS(=O)(=O)c1ccc(-c2oc3ccccc3c(=O)c2-c2ccc(Cl)c(Cl)c2)cc1` were, in that order, under 5% and 6.57.
As to `COc1ccc(-c2c(-c3ccc(S(C)(=O)=O)cc3)oc3ccccc3c2=O)cn1`, the inhibition in [1] was 18%. The same compound gave a pIC50 in data set [3] of 5.64.
For `CS(=O)(=O)c1ccc(-c2oc3ccccc3c(=O)c2-c2cccc3ccccc23)cc1`, in that order: under 5% and 5.42.
As to `CS(=O)(=O)c1ccc(-c2oc3ccccc3c(=O)c2-c2cc(Cl)cc(Cl)c2)cc1`, the results for the inhibition in data set [4] and in [1] were 7% and under 5%, respectively.
`CS(=O)(=O)c1ccc(-c2oc3ccccc3c(=O)c2-c2ccc(Cl)cc2)cc1` had an inhibition in data set [1] of under 5%.
For `Cn1cc(-c2c(-c3ccc(S(C)(=O)=O)cc3)oc3ccccc3c2=O)cn1`, the results for the inhibition in data set [1] and in [2] were under 5% and 13%, respectively.
In the case of `COc1ccc(-c2c(-c3ccc(S(C)(=O)=O)cc3)oc3ccccc3c2=O)cc1`, the inhibition in [1] was under 5%. The compound also had a negative logarithm of the IC50 (pIC50) in [3] of 6.29.
As for `CS(=O)(=O)c1ccc(-c2oc3ccc(F)cc3c(=O)c2-c2cccnc2)cc1`, the highest level in [5] (Cmax) was 6900 ng/mL. This compound also gave a half-life in [6] of 7.4 h. The time of peak concentration (Tmax) in [7] was 5 h. Moreover, the inhibition in data set [1] was found to be 12%. In data set [3], the pIC50 was 5.90. Moreover, 10 mg/kg produced 26% inhibition in vivo in [8]. In data set [9], this compound came in with an inhibition in vivo at 3 mg/kg of 20%. Besides, the inhibition in vivo at 30 mg/kg in data set [10] was found to be 41%.
Consider `CS(=O)(=O)c1ccc(-c2oc3ccccc3c(=O)c2-c2cc3ccccc3s2)cc1`, for which the inhibition in data set [1] is under 5%. This compound also had a pIC50 in data set [3] of 6.49.
For `CS(=O)(=O)c1ccc(-c2oc3ccccc3c(=O)c2-c2ccccc2)cc1`, in that order: under 5% and 6.03.
Turning to `NS(=O)(=O)c1ccc(-c2oc3ccccc3c(=O)c2-c2ccc3c(c2)OCO3)cc1`, in [11], the inhibition came to 75%. Also, the negative-log IC50 (pIC50) in data set [3] is 6.03.
For `CSc1ccc(-c2c(-c3ccc(S(N)(=O)=O)cc3)oc3ccccc3c2=O)cc1`, the inhibition in data set [1] was 90%. The same compound gave a pIC50 in [3] of 6.55.
The like results for `CS(=O)(=O)c1ccc(-c2oc3ccccc3c(=S)c2-c2ccccc2)cc1` were, in that order, under 5% and 6.99.
In data set [1], `CS(=O)(=O)c1ccc(-c2oc3ccccc3c(=S)c2-c2ccccc2F)cc1` showed an inhibition of under 5%. In [3], this compound gave a negative logarithm of the IC50 (pIC50) of 6.71.
For `CS(=O)(=O)c1ccc(-c2oc3ccccc3c(=O)c2-c2cccc(Cl)c2)cc1`, in that order: under 5% and 6.44.
For `CS(=O)(=O)c1ccc(-c2oc3ccccc3c(=O)c2-c2cccc(F)c2)cc1`, in that order: under 5% and 6.27.
In data set [1], `CS(=O)(=O)c1ccc(-c2oc3ccccc3c(=O)c2-c2cccnc2)cc1` had an inhibition of 13%. In data set [12], this compound returned an inhibition in vivo at 3 mg/kg of 18%. Moreover, in [13], 30 mg/kg produced 41% inhibition in vivo.
Consider `CS(=O)(=O)c1ccc(-c2oc3ccccc3c(=O)c2-c2ccncc2)cc1`, for which the inhibition in [1] was under 5%; in data set [2] it was 24%.
On to `NS(=O)(=O)c1ccc(-c2oc3ccccc3c(=O)c2-c2ccccc2)cc1`, for which, in [1], the inhibition came out at 61%. In [3], this compound showed a negative-log IC50 (pIC50) of 6.97.
The like results for `CS(=O)(=O)c1ccc(-c2oc3ccccc3c(=O)c2-c2ccc(F)cc2)cc1` were, in that order, under 5% and 6.69.
For `Cc1ccccc1-c1c(-c2ccc(S(C)(=O)=O)cc2)oc2ccccc2c1=O`, in that order: under 5% and 6.02.
`CS(=O)(=O)c1ccc(-c2oc3ccccc3c(=S)c2-c2ccc(F)cc2)cc1`: the inhibition in data set [1] is under 5%. This compound also had a negative-log IC50 (pIC50) in data set [3] of 7.14.
Take `CS(=O)(=O)c1ccc(-c2oc3ccccc3c(=S)c2-c2ccc(Cl)c(Cl)c2)cc1`: the inhibition in data set [1] is under 5%. Moreover, the pIC50 in [3] was 6.28.
With `NS(=O)(=O)c1ccc(-c2oc3ccccc3c(=O)c2-c2ccc(F)cc2)cc1`, the inhibition in [1] is 67%. The compound also showed a negative logarithm of the IC50 (pIC50) in data set [3] of 6.90.
For `CS(=O)(=O)c1ccc(-c2oc3ccccc3c(=O)c2-c2ccccc2F)cc1`, in that order: under 5% and 7.12.
`COc1ccc(-c2c(-c3ccc(S(C)(=O)=O)cc3)oc3ccccc3c2=S)cc1` displayed an inhibition in [1] of under 5%. The compound further gave a negative logarithm of the IC50 (pIC50) in data set [3] of 6.85.

As a reminder, the inhibition is the relative decrease from the control value, in per cent. Lower therefore signals a response near the control. The term pIC50 denotes −log10 of the IC50, conventionally taken in molar units. Lower therefore signals a high IC50. As a reminder, the Cmax is the peak of the concentration-time curve. In general, half-life refers to the time in which the quantity being followed falls by half. What is called Tmax is the time from dosing to the highest level. As a reminder, the inhibition in vivo is the share of the control response that was lost under treatment.
